Patent publication US6676973B1, “Method of treating ovarian cancers with cadmium” (priority 1995, dated 2004)

How the values were obtained:
A2780 cells [1] = assay: microculture tetrazolium (MTT) cytotoxicity assay, A2780; format: cell-based, human; conditions: for IC50: read-out: 50% cell kill (IC50)
Procedure: (§1) Human ovarian cancer A2780 and A2780/CP70 cells were cultured in monolayer using RPMI 1640 media supplemented with 10% fetal calf serum, 2 mM L-glutamine, 0.2 U insulin/ml, 100 U/ml penicillin, and 100 μg/ml streptomycin (GIBCO, Grands Island, N.Y.). Cells were grown in a humidified chamber containing a mixture of 5% CO2 and ambient air at 37° C. Sensitivity of A2780 and A2780/CP70 cells to Cd and to cisplatin was assessed by microculture tetrazolium (MTT) assay, as described by Alley et al. Briefly, cells were plated at 1000 cells/well in 96-well plates and drug exposure was made the following day. Cadmium dichloride was initially dissolved in double distilled water (Dh2O) at 1.0 mg/ml (5.46 Mm Cadmium), and dilutions from this solution were made in media to obtain the desired drug treatment concentrations of 1 μM, 10 μM, 20 μM, 40 μM, 100 μM, 150 μM and 200 μM. Cisplatin was dissolved in PBS without Ca^++ or Mg^++ at 1.0 mg/ml (3.33 Mm cisplatin), and dilutions from this solution was made in media to obtain the desired drug treatment concentrations of ranging from 1 μM to 300 μM. Drug treatments were for 1 hour.
(§2) After drug treatments, cells were washed twice with PBS without Ca^++ or Mg^++, treated with fresh drug-free media, and incubated for 5 days. On day 5 after drug treatment, 50 microliter of 3-(4,5-dimethylthiazol-2-yl)-2,5 diphenyltetrazolium bromide (MTT) (400 mg in 200 ml of PBS) were added to each well and incubated for 4 hours at 37° C. Analysis of optical density readings were performed using the VV Deltasoft program on a Macintosh computer (Apple, Inc., Palo Alto, Calif.) and percentage cell growth values were obtained.

A2780/CP70 cells [2] = format: cell-based, human; conditions: for IC50: read-out: 50% cell kill (IC50)
Procedure: as §1, §2

A2780 cells [3] = assay: cellular Cd accumulation after 1 hour exposure to a range of Cd doses (AAS), A2780; format: cell-based, human
Procedure: We examined the cellular Cd accumulation following 1 hour exposures to a range of Cd doses. Cells were grown in T-150 flasks (Costar, Cambridge, Mass.) to 60-80% confluence and then exposed to 10 μM, 50 μM, 100 μM and 200 μM Cd for 1 hour. Cells were harvested, immediately counted and then “wet-ashed” [20]. Total cellular Cd accumulation was measured by atomic absorption spectrometry with Zeeman background correction (AAS), and assessed as nanograms of Cd per million cells (ng Cd/10^6 cells)

A2780 cells [4] = assay: cellular drug accumulation and efflux at IC50 dose (AAS), A2780; format: cell-based, human; conditions: for ASSOCIATED DRUG / PERCENT REMOVED (efflux) / PERCENT ACCUMULATION / DRUG UPTAKE: A2780; for PERCENT ACCUMULATION: IC50 dose; for DRUG UPTAKE: IC50 dose 58 μM
Procedure: (§3) Cells were harvested at time points of 15, 30, 45, and 60 minutes during 1 hour drug exposures, and at 1 and 3 hours after drug exposure. Cells were immediately counted and then wet-ashed. Total cellular drug. accumulation was measured by AAS, and assessed as both nanograms of Cd per million cells (ng Cd/10^6 cells) and as the percentage of the highest levels of total cellular drug.

A2780/CP70 cells [5] = assay: cellular drug accumulation and efflux at IC50 dose (AAS), A2780/CP70; format: cell-based, human; conditions: for PERCENT ACCUMULATION: IC50 dose; for DRUG UPTAKE: IC50 dose 128 μM
Procedure: as §3

[6] = tested on: cellular DNA of A2780/CP70 cells; assay: Cd-DNA adduct formation after 1 hour exposure to a range of Cd doses (AAS), A2780/CP70; format: cell-based, human
Procedure: We examined the formation of Cd-DNA adduct in cellular DNA following 1 hour exposures to a range of Cd drug doses. Cells were grown in T-150 flasks (Costar, Cambridge, Mass.) to 60-80% confluence and then exposed to 0 μM (control), 10 μM, 50 μM, 100 μM and 200 μM Cd for 1 hour. Following a 1 hour drug exposure, cells were washed twice with cold PBS, harvested, and frozen immediately at −20° C. until DNA isolation. Total cellular DNA was isolated on cesium chloride density gradients. DNA was dialyzed against Dh2O with 3-4 changes over 36-48 hours, and quantitated by absorbance at 260 nm. Total Cd per unit DNA was measured by AAS.

[7] = tested on: cellular DNA of A2780 cells; assay: Cd-DNA adduct formation and repair after IC50 exposure (AAS), A2780; format: cell-based, human
Procedure: (§4) We examined the formation and removal of Cd-DNA adduct in cellular DNA following 1 hour drug exposures. […] An aliquot of cells was harvested before drug treatment (time zero). Following a 1 hour drug exposure, cells were washed and harvested at. the following time points: 0 hour (immediately at the end of Cd exposure), 1 hour, 6 hour, and 24 hours. Cells were frozen immediately at −20° C. until DNA isolation. Total cellular DNA was isolated and assayed as described above, and total Cd per unit DNA was measured by AAS.

[8] = tested on: cellular DNA of A2780/CP70 cells; assay: Cd-DNA adduct formation and repair after IC50 exposure (AAS), A2780/CP70; format: cell-based, human
Procedure: as §4

[9] = tested on: liver and lung tumors in B6C3F1 mice; conditions: single dose of NDEA followed by cadmium chloride in the drinking water; cited from earlier work
[10] = A2780 cells, 1 hour exposure, MTT
[11] = A2780/CP70 cells, 1 hour exposure, MTT
[12] = 0 hours after 1 hour IC50 exposure
[13] = 1 hour after 1 hour IC50 exposure
[14] = 3 hours after 1 hour IC50 exposure
[15] = 3 hours after 1 hour IC50 exposure, listed as Cadmium

N.N.[Cl][Pt][Cl] [cisplatin, reference compound]
IC50 (A2780 cells [1]; [10]): 16 µM | A2780 cells more sensitive to cisplatin than to Cd (A2780 cells [1]; on a μM basis, 50% cell kill): 3.6 fold | IC50 (A2780/CP70 cells [2]; [11]): 160 µM | increase in resistance of A2780/CP70 cells as compared to A2780 cells (A2780/CP70 cells [2]; drug exposures associated with 50% cell kill): 10 fold

[Cl][Cd][Cl] [Cd, Cadmium dichloride]
10% cell kill (A2780 cells [1]; [10]): 0.45 µM | 90% cell kill (A2780 cells [1]; [10]): 130 µM | IC50 (A2780 cells [1]; [10]): 58 µM | 10% cell kill (A2780/CP70 cells [2]; [11]): 28 µM | 90% cell kill (A2780/CP70 cells [2]; [11]): 195 µM | IC50 (A2780/CP70 cells [2]; [11]): 128 µM | level of cross-resistance of A2780/CP70 cells to Cd (A2780/CP70 cells [2]; compared with 10-fold resistance to cisplatin): approximately equal level | A2780/CP70 cells more sensitive to Cd (than to cisplatin) (A2780/CP70 cells [2]; on a μM basis, 50% cell kill): 1.25 fold | slope of linear regression, cellular Cd versus Cd dose (A2780 cells [3]; A2780 cells, 1 hour exposure, up to 200 μM): 0.024 | more cellular drug accumulated per unit dose, A2780 versus A2780/CP70 (A2780 cells [3]; from slopes of linear regression): 4.9 fold | ASSOCIATED DRUG (A2780 cells [4]; [12]): 20.85 ± 4.4 ng Cd/10^6 Cells | PERCENT REMOVED (efflux) (A2780 cells [4]; 0 hours after exposure): 90% | PERCENT ACCUMULATION (A2780 cells [4]; 15 minutes): 33% | DRUG UPTAKE (A2780 cells [4]; 15 minutes): 6.89 ± 0.53 ng Cd/10^6 | PERCENT ACCUMULATION (A2780 cells [4]; 30 minutes): 47% | DRUG UPTAKE (A2780 cells [4]; 30 minutes): 9.83 ± 1.06 ng Cd/10^6 | PERCENT ACCUMULATION (A2780 cells [4]; 45 minutes): 60% | DRUG UPTAKE (A2780 cells [4]; 45 minutes): 12.47 ± 1.95 ng Cd/10^6 | ASSOCIATED DRUG (A2780 cells [4]; [13]): 12.74 ± 3.74 ng Cd/10^6 Cells | PERCENT REMOVED (efflux) (A2780 cells [4]; 1 hour after exposure): 30% | PERCENT ACCUMULATION (A2780 cells [4]; 60 minutes): 100% | DRUG UPTAKE (A2780 cells [4]; 60 minutes): 20.85±4.49 ng Cd/10^6 | DRUG UPTAKE (A2780 cells [4]; 60 minutes, listed as Cadmium): 20.85 ± 4.49 ng Cd/10^6 | ASSOCIATED DRUG (A2780 cells [4]; [14]): 6.56±0.58 ng Cd/10^6 Cells | ASSOCIATED DRUG (A2780 cells [4]; [15]): 6.56 ± 0.58 ng Cd/10^6 Cells | PERCENT REMOVED (efflux) (A2780 cells [4]; 3 hours after exposure): 69% | greater rate of Cd accumulation, A2780 versus A2780/CP70 (A2780 cells [4]; from slopes, respective IC50 doses): 2.8 fold | ASSOCIATED DRUG (A2780/CP70 cells [5]; [12]): 6.61 ± 1.4 ng Cd/10^6 Cells | PERCENT REMOVED (efflux) (A2780/CP70 cells [5]; 0 hours after exposure): 80% | PERCENT ACCUMULATION (A2780/CP70 cells [5]; 15 minutes): 10% | DRUG UPTAKE (A2780/CP70 cells [5]; 15 minutes): 0.65 ± 0.16 ng Cd/10^6 | PERCENT ACCUMULATION (A2780/CP70 cells [5]; 30 minutes): 46% | DRUG UPTAKE (A2780/CP70 cells [5]; 30 minutes): 3.03 ± 1.11 ng Cd/10^6 | PERCENT ACCUMULATION (A2780/CP70 cells [5]; 45 minutes): 66% | DRUG UPTAKE (A2780/CP70 cells [5]; 45 minutes): 4.33 ± 2.02 ng Cd/10^6 | ASSOCIATED DRUG (A2780/CP70 cells [5]; [13]): 4.08 ± 1.4 ng Cd/10^6 Cells | PERCENT REMOVED (efflux) (A2780/CP70 cells [5]; 1 hour after exposure): 38% | PERCENT ACCUMULATION (A2780/CP70 cells [5]; 60 minutes): 100% | DRUG UPTAKE (A2780/CP70 cells [5]; 60 minutes): 6.61±1.48 ng Cd/10^6 | DRUG UPTAKE (A2780/CP70 cells [5]; 60 minutes, listed as Cadmium): 6.61 ± 1.48 ng Cd/10^6 | ASSOCIATED DRUG (A2780/CP70 cells [5]; [14]): 2.08±0.92 ng Cd/10^6 Cells | ASSOCIATED DRUG (A2780/CP70 cells [5]; [15]): 2.08 ± 0.92 ng Cd/10^6 Cells | PERCENT REMOVED (efflux) (A2780/CP70 cells [5]; 3 hours after exposure): 69% | more DNA damage required in resistant A2780/CP70 cells to induce an equivalent level of cell kill ([6]; FIG. 5B, A2780/CP70 versus A2780): 5-10 lesions per million DNA bases | more Cd needed in A2780/CP70 to attain the same level of Cd-DNA damage as in A2780 ([6]; from slopes of the equations): 1.7 fold | Cd-DNA ADDUCT ([7]; 0 hours after 1 hour IC50 (58 μM) exposure): 8.45 ± 3.59 pg Cd/μg DNA | % REPAIR (amount of peak adduct removed) ([7]; 0 hours after IC50 exposure): 0% | Cd-DNA ADDUCT ([7]; 1 hour after 1 hour IC50 (58 μM) exposure, peak): 11.81±6.59 pg Cd/μg DNA | Cd-DNA ADDUCT ([7]; 1 hour after 1 hour IC50 (58 μM) exposure, peak, listed as Cadmium): 11.81 ± 6.59 pg Cd/μg DNA | % REPAIR (amount of peak adduct removed) ([7]; 1 hour after IC50 exposure): no removal | % REPAIR (amount of peak adduct removed) ([7]; 1 hour after IC50 exposure, listed as Cadmium): 0% | Cd-DNA ADDUCT ([7]; 6 hours after 1 hour IC50 (58 μM) exposure): 7.08±3.92 pg Cd/μg DNA | Cd-DNA ADDUCT ([7]; 6 hours after 1 hour IC50 (58 μM) exposure, listed as Cadmium): 7.08 ± 3.92 pg Cd/μg DNA | % REPAIR (amount of peak adduct removed) ([7]; 6 hours after IC50 exposure): 40% | Cd-DNA ADDUCT ([7]; 24 hours after 1 hour IC50 (58 μM) exposure): 5.28±3.11 pg Cd/μg DNA | Cd-DNA ADDUCT ([7]; 24 hours after 1 hour IC50 (58 μM) exposure, listed as Cadmium): 5.28 ± 3.11 pg Cd/μg DNA | % REPAIR (amount of peak adduct removed) ([7]; 24 hours after IC50 exposure): 55% | Cd-DNA ADDUCT ([8]; 0 hours after 1 hour IC50 (128 μM) exposure, peak): 15.58±3.56 pg Cd/μg DNA | Cd-DNA ADDUCT ([8]; 0 hours after 1 hour IC50 (128 μM) exposure, peak, listed as Cadmium): 15.58 ± 3.56 pg Cd/μg DNA | % REPAIR (amount of peak adduct removed) ([8]; 0 hours after IC50 exposure): 0% | Cd-DNA ADDUCT ([8]; 1 hour after 1 hour IC50 (128 μM) exposure): 13.31 ± 4.62 pg Cd/μg DNA | % REPAIR (amount of peak adduct removed) ([8]; 1 hour after IC50 exposure): 15% | Cd-DNA ADDUCT ([8]; 6 hours after 1 hour IC50 (128 μM) exposure): 12.05±3.98 pg Cd/μg DNA | Cd-DNA ADDUCT ([8]; 6 hours after 1 hour IC50 (128 μM) exposure, listed as Cadmium): 12.05 ± 3.98 pg Cd/μg DNA | % REPAIR (amount of peak adduct removed) ([8]; 6 hours after IC50 exposure): 23% | Cd-DNA ADDUCT ([8]; 24 hours after 1 hour IC50 (128 μM) exposure): 8.47±2.85 pg Cd/μg DNA | Cd-DNA ADDUCT ([8]; 24 hours after 1 hour IC50 (128 μM) exposure, listed as Cadmium): 8.47 ± 2.85 pg Cd/μg DNA | % REPAIR (amount of peak adduct removed) ([8]; 24 hours after IC50 exposure): 46% | incidence and multiplicity of NDEA-induced lung tumors [9]: reduced | spontaneously-occurring liver tumors [9]: eliminated
